Values of other authors in patent publication US7838281B2, “Sulfide bath” (Soothing Sulfur Spas, LLC, priority 2007, dated 2010).

Details: aqueous solution

| SMILES | pK for the HCO3^−/CO2 | pK for the HS^−/S^−2 |
| --- | --- | --- |
| O=C(O)O [HCO3^−] | 6.2 | – |
| S [HS^−] | – | 14 |
